# From publication PMC5218480 (PLoS ONE, 2017)
# Test system: MV-4-11 cells
# Test: Gene expression microarray analysis (Affymetrix PrimeView) and GSEA
# Assay type: cell-based, human
# Design: RFU PODN (11730768_x_at) / Fold change /veh PODN (11730768_x_at) / RFU LINC00158 (11744669_a_at) / Fold change /veh LINC00158 (11744669_a_at) / RFU DUSP10 (11751237_a_at) / Fold change /veh DUSP10 (11751237_a_at) / RFU ID3 (11757404_x_at) / Fold change /veh ID3 (11757404_x_at) / RFU PLEKHG5 (11737974_s_at) / Fold change /veh PLEKHG5 (11737974_s_at) / RFU LRRC4B (11730491_at) / Fold change /veh LRRC4B (11730491_at) / RFU GIMAP4 (11747438_a_at) / Fold change /veh GIMAP4 (11747438_a_at) / RFU KRT8 (11758183_x_at) / Fold change /veh KRT8 (11758183_x_at) / RFU CNN1 (11734310_a_at) / Fold change /veh CNN1 (11734310_a_at) / RFU VPS37D (11726825_at) / Fold change /veh VPS37D (11726825_at) / RFU C10orf10 (11716522_x_at) / Fold change /veh C10orf10 (11716522_x_at) / RFU KIR2DL2 /// KIR2DL4 /// KIR2DL5A /// KIR2DL5B /// KIR2DS1 /// KIR2DS2 /// KIR2DS3 /// KIR2DS4 /// KIR3DL3 /// KIR3DL3 /// KIR3DS1 (11738374_at) / Fold change /veh KIR2DL2 /// KIR2DL4 /// KIR2DL5A /// KIR2DL5B /// KIR2DS1 /// KIR2DS2 /// KIR2DS3 /// KIR2DS4 /// KIR3DL3 /// KIR3DL3 /// KIR3DS1 (11738374_at) / RFU C1QL1 (11718748_at) / Fold change /veh C1QL1 (11718748_at) / RFU TMPRSS4 (11747572_a_at) / Fold change /veh TMPRSS4 (11747572_a_at) / RFU HAMP (11756126_x_at) / Fold change /veh HAMP (11756126_x_at) / RFU RNFT2 (11725882_a_at) / Fold change /veh RNFT2 (11725882_a_at) / RFU NR4A2 (11747474_a_at) / Fold change /veh NR4A2 (11747474_a_at) / RFU ABCC12 (11746883_a_at) / Fold change /veh ABCC12 (11746883_a_at) / RFU TMEM136 (11760407_x_at) / Fold change /veh TMEM136 (11760407_x_at) / RFU CLDN22 /// WWC2 (11732394_at) / Fold change /veh CLDN22 /// WWC2 (11732394_at) / RFU HLA-DPB1 (11760878_x_at) / Fold change /veh HLA-DPB1 (11760878_x_at) / RFU SPINT1 (11716480_a_at) / Fold change /veh SPINT1 (11716480_a_at) / RFU GAP43 (11754022_s_at) / Fold change /veh GAP43 (11754022_s_at) / RFU A4GNT (11735810_at) / Fold change /veh A4GNT (11735810_at) / RFU PRB3 (11715151_x_at) / Fold change /veh PRB3 (11715151_x_at) / RFU TUBB4B (11761932_at) / Fold change /veh TUBB4B (11761932_at) / RFU CAPN14 (11732068_a_at) / Fold change /veh CAPN14 (11732068_a_at) / RFU TMCC2 (11721928_a_at) / Fold change /veh TMCC2 (11721928_a_at) / RFU IRGQ (11745062_a_at) / Fold change /veh IRGQ (11745062_a_at) / RFU FAM174B (11720279_a_at) / Fold change /veh FAM174B (11720279_a_at) / RFU TMPRSS4 (11748680_a_at) / Fold change /veh TMPRSS4 (11748680_a_at) / RFU FAM212B (11763350_a_at) / Fold change /veh FAM212B (11763350_a_at) / RFU PLEKHG5 (11743358_a_at) / Fold change /veh PLEKHG5 (11743358_a_at) / RFU ZSCAN30 (11745921_a_at) / Fold change /veh ZSCAN30 (11745921_a_at) / RFU CMKLR1 (11741424_a_at) / Fold change /veh CMKLR1 (11741424_a_at) / RFU LOC101060620 /// MAPK8IP1 (11723275_at) / Fold change /veh LOC101060620 /// MAPK8IP1 (11723275_at) / RFU SPTSSB (11747773_x_at) / Fold change /veh SPTSSB (11747773_x_at) / RFU PRSS12 (11739890_at) / Fold change /veh PRSS12 (11739890_at) / RFU BIN1 (11741810_x_at) / Fold change /veh BIN1 (11741810_x_at) / RFU WNT11 (11732464_a_at) / Fold change /veh WNT11 (11732464_a_at) / RFU C10orf10 (11716521_a_at) / Fold change /veh C10orf10 (11716521_a_at) / RFU C5orf56 (11738089_at) / Fold change /veh C5orf56 (11738089_at) / RFU CYB561 (11721691_x_at) / Fold change /veh CYB561 (11721691_x_at) / RFU ANKRD19P (11752326_a_at) / Fold change /veh ANKRD19P (11752326_a_at) / RFU OR2T12 /// OR2T33 /// OR2T8 (11738714_s_at) / Fold change /veh OR2T12 /// OR2T33 /// OR2T8 (11738714_s_at) / RFU VCAN (11748164_a_at) / Fold change /veh VCAN (11748164_a_at) / RFU JSRP1 (11732532_at) / Fold change /veh JSRP1 (11732532_at) / RFU KRTAP10-11 (11738290_x_at) / Fold change /veh KRTAP10-11 (11738290_x_at) / RFU MYO3A (11730013_a_at) / Fold change /veh MYO3A (11730013_a_at) / RFU EBF3 (11725865_a_at) / Fold change /veh EBF3 (11725865_a_at) / RFU CAMK2N1 (11719241_x_at) / Fold change /veh CAMK2N1 (11719241_x_at) / RFU C5orf56 (11738088_a_at) / Fold change /veh C5orf56 (11738088_a_at) / RFU OLFML3 (11715873_a_at) / Fold change /veh OLFML3 (11715873_a_at) / RFU LOC100653217 /// NTM (11731650_a_at) / Fold change /veh LOC100653217 /// NTM (11731650_a_at) / RFU MAPK11 (11762145_a_at) / Fold change /veh MAPK11 (11762145_a_at) / RFU FIZ1 (11724087_x_at) / Fold change /veh FIZ1 (11724087_x_at) / RFU OASL (11726364_x_at) / Fold change /veh OASL (11726364_x_at) / RFU SOX15 (11748057_x_at) / Fold change /veh SOX15 (11748057_x_at) / RFU CD79A (11719716_a_at) / Fold change /veh CD79A (11719716_a_at) / RFU HIST1H1D (11736915_at) / Fold change /veh HIST1H1D (11736915_at) / RFU CASKIN2 (11723855_a_at) / Fold change /veh CASKIN2 (11723855_a_at) / RFU LOC730098 (11760151_x_at) / Fold change /veh LOC730098 (11760151_x_at) / RFU OR4N2 (11742367_at) / Fold change /veh OR4N2 (11742367_at) / RFU PRRT2 (11749266_a_at) / Fold change /veh PRRT2 (11749266_a_at) / RFU SNX32 (11753110_a_at) / Fold change /veh SNX32 (11753110_a_at) / RFU CDHR5 (11726645_a_at) / Fold change /veh CDHR5 (11726645_a_at) / RFU RCAN1 (11760418_a_at) / Fold change /veh RCAN1 (11760418_a_at) / RFU FAM167A (11723789_a_at) / Fold change /veh FAM167A (11723789_a_at) / RFU FAM26E (11764081_at) / Fold change /veh FAM26E (11764081_at) / RFU ISYNA1 (11749810_s_at) / Fold change /veh ISYNA1 (11749810_s_at) / RFU ACY1 (11761880_at) / Fold change /veh ACY1 (11761880_at) / RFU 11764098_at / Fold change /veh 11764098_at / RFU SAMD14 (11745864_x_at) / Fold change /veh SAMD14 (11745864_x_at) / RFU NPB (11741838_a_at) / Fold change /veh NPB (11741838_a_at) / RFU TMPRSS6 (11731388_a_at) / Fold change /veh TMPRSS6 (11731388_a_at) / RFU KRTAP10-2 (11738614_at) / Fold change /veh KRTAP10-2 (11738614_at) / RFU ARHGAP8 /// PRR5-ARHGAP8 (11727945_x_at) / Fold change /veh ARHGAP8 /// PRR5-ARHGAP8 (11727945_x_at) / RFU KRTAP5-7 /// NADSYN1 (11734609_at) / Fold change /veh KRTAP5-7 /// NADSYN1 (11734609_at) / RFU RASL12 (11751679_a_at) / Fold change /veh RASL12 (11751679_a_at) / RFU CDKN2B (11736163_a_at) / Fold change /veh CDKN2B (11736163_a_at) / RFU PRF1 (11729649_at) / Fold change /veh PRF1 (11729649_at) / RFU, ZNF638 /// ZNF638-IT1 / Fold change vs veh, ZNF638 /// ZNF638-IT1 / RFU, PANK3 / Fold change vs veh, PANK3 / RFU, SH3YL1 / Fold change vs veh, SH3YL1 / RFU, ZEB2 / Fold change vs veh, ZEB2 / RFU, NRIP1 / Fold change vs veh, NRIP1 / RFU, PTTG1IP / Fold change vs veh, PTTG1IP / RFU, CAPN2 / Fold change vs veh, CAPN2 / RFU, MED14 / Fold change vs veh, MED14 / RFU, SNORA58 / Fold change vs veh, SNORA58 / RFU, C1orf63 / Fold change vs veh, C1orf63 / RFU, LRRFIP1 / Fold change vs veh, LRRFIP1 / RFU, NDUFAF7 / Fold change vs veh, NDUFAF7 / RFU, SLC12A2 / Fold change vs veh, SLC12A2 / RFU, IBTK / Fold change vs veh, IBTK / RFU, ESF1 / Fold change vs veh, ESF1 / Fold change vs veh, TMEM50B / RFU, TAOK1 / Fold change vs veh, TAOK1 / RFU, ACBD3 / Fold change vs veh, ACBD3 / RFU, TMA16 / Fold change vs veh, TMA16 / RFU, RWDD3 / Fold change vs veh, RWDD3 / RFU, BCAT1 / Fold change vs veh, BCAT1 / RFU, EDEM3 / Fold change vs veh, EDEM3 / RFU, TMEM33 / Fold change vs veh, TMEM33 / RFU, WDR75 / Fold change vs veh, WDR75 / RFU, AHCTF1 / Fold change vs veh, AHCTF1 / RFU, TFRC / Fold change vs veh, TFRC / RFU, ZDHHC17 / Fold change vs veh, ZDHHC17 / RFU, NOM1 / Fold change vs veh, NOM1 / RFU, ARL8B / Fold change vs veh, ARL8B / RFU, ZBTB11 / Fold change vs veh, ZBTB11 / RFU, TAMM41 / Fold change vs veh, TAMM41 / RFU, KIAA1704 /// LOC100996395 / Fold change vs veh, KIAA1704 /// LOC100996395 / RFU, ING1 / Fold change vs veh, ING1 / RFU, TRMT61B / Fold change vs veh, TRMT61B / RFU, FUBP3 / Fold change vs veh, FUBP3 / RFU, TP53 / Fold change vs veh, TP53 / RFU, TNKS2 / Fold change vs veh, TNKS2 / RFU, ZFP14 / Fold change vs veh, ZFP14 / RFU, ACTR2 / Fold change vs veh, ACTR2 / RFU, PPP3R1 / Fold change vs veh, PPP3R1 / RFU, PIK3R1 / Fold change vs veh, PIK3R1 / RFU, HNRNPA1 / Fold change vs veh, HNRNPA1 / RFU, RNF170 / Fold change vs veh, RNF170 / RFU, ZNF28 / Fold change vs veh, ZNF28 / RFU, RNGTT / Fold change vs veh, RNGTT / RFU, OGT / Fold change vs veh, OGT / RFU, BRD1 / Fold change vs veh, BRD1 / RFU, MARS / Fold change vs veh, MARS / RFU, ZNF655 / Fold change vs veh, ZNF655 / RFU, FAHD1 / Fold change vs veh, FAHD1 / RFU, BDP1 / Fold change vs veh, BDP1 / RFU, LRRCC1 / Fold change vs veh, LRRCC1 / RFU, ARID1A / Fold change vs veh, ARID1A / RFU, ZNF146 / Fold change vs veh, ZNF146 / RFU, ZNF330 / Fold change vs veh, ZNF330 / RFU, GPN3 / Fold change vs veh, GPN3 / RFU, C9orf123 / Fold change vs veh, C9orf123 / RFU, N4BP2L2 / Fold change vs veh, N4BP2L2 / RFU, ARFIP1 / Fold change vs veh, ARFIP1 / RFU, FAM179B / Fold change vs veh, FAM179B / RFU, BCL10 / Fold change vs veh, BCL10 / RFU, UHRF1BP1L / Fold change vs veh, UHRF1BP1L / RFU, BET1 / Fold change vs veh, BET1 / RFU, CNOT2 / Fold change vs veh, CNOT2 / RFU, ZNF268 / Fold change vs veh, ZNF268 / Fold change vs veh, ZNF507 / RFU, DGCR2 / Fold change vs veh, DGCR2 / RFU, WDSUB1 / Fold change vs veh, WDSUB1 / Fold change vs veh, HSP90B1 /// MIR3652 / RFU, ADSS / Fold change vs veh, ADSS / RFU, GK / Fold change vs veh, GK / RFU, ZNF148 / Fold change vs veh, ZNF148 / RFU, TAF9 / Fold change vs veh, TAF9 / RFU, SLC1A5 / Fold change vs veh, SLC1A5 / RFU, SLMO2 / Fold change vs veh, SLMO2 / RFU, ABCC4 / Fold change vs veh, ABCC4 / RFU, LOC101060439 /// RAP1B / Fold change vs veh, LOC101060439 /// RAP1B / RFU, RFX7 / Fold change vs veh, RFX7 / RFU, GTPBP10 / Fold change vs veh, GTPBP10 / RFU, CNEP1R1 / Fold change vs veh, CNEP1R1 / RFU, BIVM-ERCC5 /// ERCC5 / Fold change vs veh, BIVM-ERCC5 /// ERCC5 / RFU, ILF3 / Fold change vs veh, ILF3 / RFU 11762660_at / Fold change /veh 11762660_at / RFU VCAN (11757783_s_at) / Fold change /veh VCAN (11757783_s_at) / RFU DDX43 (11728927_at) / Fold change /veh DDX43 (11728927_at) / RFU KRT8 (11758188_x_at) / Fold change /veh KRT8 (11758188_x_at) / RFU NKD1 (11759106_at) / Fold change /veh NKD1 (11759106_at) / RFU SRD5A1 (11742802_a_at) / Fold change /veh SRD5A1 (11742802_a_at) / RFU TPSAB1 /// TPSB2 (11721975_s_at) / Fold change /veh TPSAB1 /// TPSB2 (11721975_s_at) / RFU GSTM3 (11746129_a_at) / Fold change /veh GSTM3 (11746129_a_at) / RFU IL23R (11737362_x_at) / Fold change /veh IL23R (11737362_x_at) / RFU TMEM51 (11727254_a_at) / Fold change /veh TMEM51 (11727254_a_at) / RFU PIWIL2 (11732686_x_at) / Fold change /veh PIWIL2 (11732686_x_at) / RFU ORM1 (11744905_x_at) / Fold change /veh ORM1 (11744905_x_at) / RFU CCDC152 (11743942_at) / Fold change /veh CCDC152 (11743942_at) / RFU ECM1 (11717891_a_at) / Fold change /veh ECM1 (11717891_a_at) / RFU IL23R (11748794_a_at) / Fold change /veh IL23R (11748794_a_at) / RFU TNFAIP8L3 (11732012_x_at) / Fold change /veh TNFAIP8L3 (11732012_x_at) / RFU MBOAT4 (11741988_at) / Fold change /veh MBOAT4 (11741988_at) / RFU 11764193_at / Fold change /veh 11764193_at / RFU TMEM53 (11763286_at) / Fold change /veh TMEM53 (11763286_at) / RFU MAGEB2 (11727129_at) / Fold change /veh MAGEB2 (11727129_at) / RFU TMEM200A (11744735_a_at) / Fold change /veh TMEM200A (11744735_a_at) / RFU CCDC152 (11751479_a_at) / Fold change /veh CCDC152 (11751479_a_at) / RFU FAM211A (11726209_a_at) / Fold change /veh FAM211A (11726209_a_at) / RFU RGS16 (11746705_a_at) / Fold change /veh RGS16 (11746705_a_at) / RFU VCAN (11755009_s_at) / Fold change /veh VCAN (11755009_s_at) / RFU RHOB (11743442_s_at) / Fold change /veh RHOB (11743442_s_at) / RFU RGS16 (11720943_a_at) / Fold change /veh RGS16 (11720943_a_at) / RFU RGS16 (11720944_at) / Fold change /veh RGS16 (11720944_at) / RFU, VPS4B / Fold change vs veh, VPS4B / RFU, CREB1 / Fold change vs veh, CREB1 / RFU, DNAJC13 / Fold change vs veh, DNAJC13 / RFU, GNAQ / Fold change vs veh, GNAQ / RFU, CDK5R1 / Fold change vs veh, CDK5R1 / RFU, ZRANB3 / Fold change vs veh, ZRANB3 / RFU, CUL4A / Fold change vs veh, CUL4A / RFU, CCNY / Fold change vs veh, CCNY / RFU, UFL1 / Fold change vs veh, UFL1 / RFU, COG3 / Fold change vs veh, COG3 / RFU, DIAPH2 / Fold change vs veh, DIAPH2 / RFU, SKA2 / Fold change vs veh, SKA2 / RFU, AFF3 / Fold change vs veh, AFF3 / RFU, LMF1 / Fold change vs veh, LMF1 / RFU, IPO11 / Fold change vs veh, IPO11 / RFU, DFFB / Fold change vs veh, DFFB / RFU, FOXP1 / Fold change vs veh, FOXP1 / RFU, CARD8 / Fold change vs veh, CARD8 / RFU, STRN3 / Fold change vs veh, STRN3 / RFU, ADK / Fold change vs veh, ADK / RFU, RASSF2 / Fold change vs veh, RASSF2 / RFU, WIPF1 / Fold change vs veh, WIPF1 / RFU, LARP1B / Fold change vs veh, LARP1B / RFU, RASA1 / Fold change vs veh, RASA1 / RFU, RB1 / Fold change vs veh, RB1 / RFU, PPFIA1 / Fold change vs veh, PPFIA1 / RFU, MAT2A / Fold change vs veh, MAT2A / RFU, CCT5 / Fold change vs veh, CCT5 / RFU, WDR92 / Fold change vs veh, WDR92 / RFU, CUX1 / Fold change vs veh, CUX1 / RFU, TTC7A / Fold change vs veh, TTC7A / RFU, TMEM135 / Fold change vs veh, TMEM135 / RFU, DEPTOR / Fold change vs veh, DEPTOR / RFU, CPM / Fold change vs veh, CPM / RFU, DNAJB6 / Fold change vs veh, DNAJB6 / RFU, CACNA2D3 / Fold change vs veh, CACNA2D3 / RFU, DTX4 / Fold change vs veh, DTX4 / RFU, TFCP2 / Fold change vs veh, TFCP2 / RFU, GMCL1 /// GMCL1P1 / Fold change vs veh, GMCL1 /// GMCL1P1 / RFU, AEBP2 / Fold change vs veh, AEBP2 / RFU, SNHG1 /// SNORD22 /// SNORD25 /// SNORD26 /// SNORD27 /// SNORD28 /// SNORD29 /// SNORD31 / Fold change vs veh, SNHG1 /// SNORD22 /// SNORD25 /// SNORD26 /// SNORD27 /// SNORD28 /// SNORD29 /// SNORD31 / Fold change (Aza/veh), C12orf56 (ProbeSet 11735607_a_at) / Fold change (ACY-1035/veh), C12orf56 (ProbeSet 11735607_a_at) / Fold change (Aza/veh), FGFR1OP (ProbeSet 11751329_s_at) / Fold change (ACY-1035/veh), FGFR1OP (ProbeSet 11751329_s_at) / Fold change (Aza/veh), VPS36 (ProbeSet 11739960_a_at) / Fold change (ACY-1035/veh), VPS36 (ProbeSet 11739960_a_at) / RFU SYPL1 (11715823_x_at) / Fold change /veh SYPL1 (11715823_x_at) / RFU IGFBP7 (11715501_s_at) / Fold change /veh IGFBP7 (11715501_s_at) / RFU REEP3 (11722064_at) / Fold change /veh REEP3 (11722064_at) / RFU IGLL1 (11728026_x_at) / Fold change /veh IGLL1 (11728026_x_at): dose or concentration left out as unconfirmed
# Conditions: ProbeSet 11728271_at; LIST B
compound,measurement,value
Nc1ncn([C@@H]2O[C@H](CO)[C@@H](O)[C@H]2O)c(=O)n1 [azacitidine],"Fold change vs veh, ZNF330",0.94
